Values of other authors as cited in patent publication US20170022153A1, “FUMARATE COMPOUNDS, PHARMACEUTICAL COMPOSITIONS THEREOF, AND METHODS OF USE” (priority 2015, published 2017).

aqueous solubility: poor
SMILES: COC(=O)/C=C/C(=O)OC [DMF, dimethylfumarate]
